Measurements from PubChem BioAssay AID330 (DTP/NCI, 2004).
Values joined by “and” are separate entries in the source; they are usually repeats but may differ in a detail not shown here. Identical values can stand only once. Toxic doses and inconclusive results are not listed. Rule for the calls: active = survival T/C of 150% or more; inactive = T/C below 125% in these data.

System: P388 leukemia ip, CD2F1 mice, survival T/C
Assay: NCI In Vivo Anticancer Drug Screen. Data for tumor model P388 Leukemia (intraperitoneal) in CD2F1 (CDF1) mice
Conditions: endpoint: median survival time, higher = longer survival
In short: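 Mice carrying the transplanted tumor received test compound or vehicle. Survival was recorded in each group, and the value is the treated-group measurement divided by that of the vehicle-treated control group.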

[1] = dose: 6.25 mg/kg/injection, schedule: Q01DX009 (ip), vehicle: saline

Measured: T/C

COc1cc[n+](CC(=O)c2c[nH]c3ccccc23)cc1
inactive: dose: 50.0 mg/kg/injection, schedule: Q01DX009 (ip), vehicle: Klucel (hydroxypropylcellulose) (HPC) 103 % of control | dose: 100.0 mg/kg/injection, schedule: Q01DX009 (ip), vehicle: Klucel (hydroxypropylcellulose) (HPC) 109 % of control

CN1C(=O)NC(=O)C(=C2C=C(c3ccccc3)C(C#N)(c3ccccc3)C(c3ccccc3)=C2)C1=O (stereo not drawn)
inactive: dose: 50.0 mg/kg/injection, schedule: Q01DX005 (ip), vehicle: Klucel (hydroxypropylcellulose) (HPC) 97 % of control | dose: 100.0 mg/kg/injection, schedule: Q01DX005 (ip), vehicle: Klucel (hydroxypropylcellulose) (HPC) 97 % of control | dose: 200.0 mg/kg/injection, schedule: Q01DX005 (ip), vehicle: Klucel (hydroxypropylcellulose) (HPC) 101 % of control

O=C(CBr)NC1OC(CO)C(O)C(O)C1O (stereo not drawn)
inactive: dose: 2.5 mg/kg/injection, schedule: Q01DX009 (ip), vehicle: saline 99 % of control | dose: 5.0 mg/kg/injection, schedule: Q01DX009 (ip), vehicle: saline 112 % of control | dose: 10.0 mg/kg/injection, schedule: Q01DX009 (ip), vehicle: saline 108 % of control

CN(C)C=Nc1ccc(Cl)cc1
inactive: dose: 25.0 mg/kg/injection, schedule: Q01DX009 (ip), vehicle: saline with Tween-80 99 % of control | dose: 50.0 mg/kg/injection, schedule: Q01DX009 (ip), vehicle: saline with Tween-80 105 % of control

NCc1ccc(Cl)c(Cl)c1
inactive: [1] 110 % of control and 116 % of control | dose: 12.5 mg/kg/injection, schedule: Q01DX009 (ip), vehicle: saline 104 % of control and 107 % of control | dose: 25.0 mg/kg/injection, schedule: Q01DX009 (ip), vehicle: saline 100 % of control and 103 % of control | dose: 50.0 mg/kg/injection, schedule: Q01DX009 (ip), vehicle: saline 101 % of control and 104 % of control | dose: 100.0 mg/kg/injection, schedule: Q01DX009 (ip), vehicle: saline 103 % of control and 109 % of control

Cn1c2c(c3nc(N)nc(N)c3c1=O)CCc1ccccc1-2
inactive: dose: 25.0 mg/kg/injection, schedule: Q01DX005 (ip), vehicle: distilled water + alcohol 102 % of control | dose: 50.0 mg/kg/injection, schedule: Q01DX005 (ip), vehicle: distilled water + alcohol 96 % of control | dose: 100.0 mg/kg/injection, schedule: Q01DX005 (ip), vehicle: distilled water + alcohol 94 % of control | dose: 200.0 mg/kg/injection, schedule: Q01DX005 (ip), vehicle: distilled water + alcohol 103 % of control

COC(=O)/C=c1\sc2n(c1=O)CCCCN=2
inactive: dose: 60.0 mg/kg/injection, schedule: Q01DX005 (ip), vehicle: Klucel (hydroxypropylcellulose) (HPC) 86 % of control | dose: 120.0 mg/kg/injection, schedule: Q01DX005 (ip), vehicle: Klucel (hydroxypropylcellulose) (HPC) 93 % of control | dose: 240.0 mg/kg/injection, schedule: Q01DX005 (ip), vehicle: Klucel (hydroxypropylcellulose) (HPC) 100 % of control

Cc1noc(N)c1Sc1ccc(Br)cc1
inactive: dose: 50.0 mg/kg/injection, schedule: Q01DX005 (ip), vehicle: saline with Tween-80 91 % of control | dose: 100.0 mg/kg/injection, schedule: Q01DX005 (ip), vehicle: saline with Tween-80 100 % of control | dose: 200.0 mg/kg/injection, schedule: Q01DX005 (ip), vehicle: saline with Tween-80 108 % of control

Cc1ccc(S(=O)(=O)N/N=C/c2c(Br)nc3n2CCS3)cc1
inactive: dose: 100.0 mg/kg/injection, schedule: Q01DX001 (ip), vehicle: Klucel (hydroxypropylcellulose) (HPC) 94 % of control | dose: 200.0 mg/kg/injection, schedule: Q01DX001 (ip), vehicle: Klucel (hydroxypropylcellulose) (HPC) 89 % of control | dose: 400.0 mg/kg/injection, schedule: Q01DX001 (ip), vehicle: Klucel (hydroxypropylcellulose) (HPC) 92 % of control

O=C1C=CCCCC1(c1ccccc1)c1ccccc1
inactive: dose: 100.0 mg/kg/injection, schedule: Q04DX002 (ip), vehicle: saline with Tween-80 96 % of control | dose: 200.0 mg/kg/injection, schedule: Q04DX002 (ip), vehicle: saline with Tween-80 96 % of control | dose: 400.0 mg/kg/injection, schedule: Q04DX002 (ip), vehicle: saline with Tween-80 96 % of control

COC(=O)CCC(=O)N(C)CCc1c[nH]c2ccccc12
inactive: dose: 100.0 mg/kg/injection, schedule: Q01DX009 (ip), vehicle: saline with Tween-80 90 % of control | dose: 200.0 mg/kg/injection, schedule: Q01DX009 (ip), vehicle: saline with Tween-80 90 % of control | dose: 400.0 mg/kg/injection, schedule: Q01DX009 (ip), vehicle: saline with Tween-80 90 % of control

NC1CCCCCCC1O (stereo not drawn)
inactive: dose: 5.0 mg/kg/injection, schedule: Q01DX009 (ip), vehicle: saline with Tween-80 104 % of control | dose: 5.0 mg/kg/injection, schedule: Q04DX003 (ip), vehicle: saline 104 % of control | dose: 10.0 mg/kg/injection, schedule: Q01DX009 (ip), vehicle: saline with Tween-80 100 % of control | dose: 10.0 mg/kg/injection, schedule: Q04DX003 (ip), vehicle: saline 100 % of control | dose: 20.0 mg/kg/injection, schedule: Q01DX009 (ip), vehicle: saline with Tween-80 104 % of control | dose: 20.0 mg/kg/injection, schedule: Q04DX003 (ip), vehicle: saline 100 % of control

CN1C=[N+](C)Cc2nnn(Cc3ccccc3)c21
inactive: dose: 1.56 mg/kg/injection, schedule: Q01DX009 (ip), vehicle: saline 105 % of control | dose: 3.12 mg/kg/injection, schedule: Q01DX009 (ip), vehicle: saline 105 % of control | [1] 100 % of control
